Results: patent US6352713B1, “Nutritional composition” (Drugtech Corporation, priority 1999, dated 2002)

What was measured:
[1] = pH of the solution/suspension of a composition in deionized water; format: physicochemical; conditions: ascorbic acid/calcium carbonate mixtures; amount equivalent to 50 mg ascorbic acid in 25 ml deionized water, stirred ten minutes
Procedure: As discussed herein, the pH of the present composition is measured by any suitable means well known to persons of ordinary skill in the art. […] Another non-limiting exemplary technique for measuring the pH of a dosage form is to use a glass mortar and pestle to grind one tablet until a finely divided uniform powder is obtained. The finely divided uniform powder is then added to an appropriate vessel and the pH is then determined as in manner of the preceding example.
To the beaker was added 25 ml of deionized water. The contents of the beaker were then vigorously stirred for ten minutes. The pH of the resultant solution/suspension was then measured.
To the beaker was added 25 ml of deionized water. The contents were then vigorously stirred for ten minutes. The pH of the resultant solution/suspension was then measured.
In comparison, a conventional chewable prenatal supplement containing 1000 IU of vitamin A, 400 IU of vitamin D3, 11 IU of vitamin E, 120 mg of vitamin C, 1 mg of folic acid, 2 mg of vitamin B1, 3 mg of riboflavin, 20 mg of niacin, 10 mg of vitamin B6, 12 mcg of vitamin B12 and 29 mg of iron was obtained. […] To the beaker was added 25 ml of deionized water. The contents were then vigorously stirred for ten minutes or until dissolved. The pH of the resultant solution/suspension was then measured.

[2] = cited from earlier work

Compound	pH Value [1]	share of dietary folic acid available to the body (bioavailability) [2]
O=C1O[C@H]([C@@H](O)CO)C(O)=C1O [Ascorbic Acid]	3.32	
Nc1nc2ncc(CNc3ccc(C(=O)N[C@@H](CCC(=O)O)C(=O)O)cc3)nc2c(=O)[nH]1 [Folic acid, pteroylglutamic acid]		about half
